Assay results reported in patent publication USRE36494E, “2-aralkoxy and 2-alkoxy adenosine derivatives as coronary vasodilators and antihypertensive agents” (Discovery Therapeutics, Inc., priority 1993, dated 2000).

Assays:
[1] = molecular target: T1, A2 receptor of the coronary artery (Cavia porcellus, UniProt P46616); assay: Coronary blood flow increase (A2 effect), isolated perfused Langendorff heart; set-up: species or system guinea pig (female Sprague-Dawley guinea pigs); conditions: for Selectivity (A1/A2): ratio of SQ prolongation ED50 (A1) to coronary flow EC50 (A2); for affinity and selectivity for A2 adenosine receptors (in words): qualitative statement
T1 construct: perfused hearts from female Sprague-Dawley guinea pigs in an isolated Langendorff heart preparation; from tissue; host or cells: isolated perfused guinea pig heart (Langendorff), coronary vasculature
Method: (§1) Assays of the cardiovascular potency of the above compounds at the A1 receptors of the SA node and at the A2 receptor of the coronary artery employed perfused hearts from female Sprague-Dawley guinea pigs in an isolated Langendorff heart preparation. An assay consists of an infusion of a spectophotometrically standardized solution of test compound directly into the aortic cannula at rates increasing stepwise every 5 minutes. Collection of the total cardiac effluent during the first half of each infusion period provides a measure of coronary flow (A2 effect). The concentration of test compound required to produce a half-maximal increase in coronary flow is determined. Registration of the ECG assesses the effect of the test compound on SA node (stimulus to Q interval, A1 effect). The concentration of test compound required to produce a half-maximal prolongation of stimulus to Q interval is determined. […] The ratio of A1 and A2 effects of test compounds are calculated to provide the selectivity ratio.

[2] = molecular target: T2, A1 receptors of the SA node (Cavia porcellus, UniProt P47745); assay: SQ (stimulus to Q) interval prolongation (A1 effect), isolated perfused Langendorff heart; set-up: species or system guinea pig (female Sprague-Dawley guinea pigs); conditions: concentration for half-maximal prolongation of stimulus to Q interval; infusion into aortic cannula, stepwise every 5 minutes; read-out: SQ Prolongation (A1) ED50
T2 construct: perfused hearts from female Sprague-Dawley guinea pigs in an isolated Langendorff heart preparation; from tissue; host or cells: isolated perfused guinea pig heart (Langendorff), nodal/conducting tissue
T2 sequence (P47745 1-326): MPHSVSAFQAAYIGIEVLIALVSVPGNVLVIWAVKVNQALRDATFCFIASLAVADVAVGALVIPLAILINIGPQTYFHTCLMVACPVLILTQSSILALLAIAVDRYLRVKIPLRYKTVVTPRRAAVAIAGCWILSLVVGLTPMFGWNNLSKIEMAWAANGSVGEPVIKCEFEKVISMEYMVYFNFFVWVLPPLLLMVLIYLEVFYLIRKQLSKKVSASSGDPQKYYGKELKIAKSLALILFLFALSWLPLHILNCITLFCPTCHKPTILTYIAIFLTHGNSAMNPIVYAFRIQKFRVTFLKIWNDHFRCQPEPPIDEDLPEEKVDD
Method: as §1

T1 sequence (P46616 whole entry, the tested form may be a part): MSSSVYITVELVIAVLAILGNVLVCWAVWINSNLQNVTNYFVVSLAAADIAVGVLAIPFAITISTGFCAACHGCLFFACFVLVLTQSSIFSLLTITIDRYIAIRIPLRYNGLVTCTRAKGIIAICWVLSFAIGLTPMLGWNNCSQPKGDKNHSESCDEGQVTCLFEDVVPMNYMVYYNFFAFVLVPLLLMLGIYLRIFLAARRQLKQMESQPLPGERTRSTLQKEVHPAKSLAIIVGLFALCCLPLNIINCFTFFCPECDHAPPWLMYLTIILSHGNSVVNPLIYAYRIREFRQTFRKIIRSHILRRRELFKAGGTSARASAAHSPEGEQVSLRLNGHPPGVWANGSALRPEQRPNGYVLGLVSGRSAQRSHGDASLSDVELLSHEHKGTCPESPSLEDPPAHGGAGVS

## CC[C@H](COc1nc(N)c2ncn([C@@H]3O[C@H](CO)[C@@H](O)[C@H]3O)c2n1)c1ccccc1 [Example 19, 2-[(2S)-phenyl-1-butoxy]adenosine]
[1]
  Selectivity (A1/A2): 872

## CC(COc1nc(N)c2ncn([C@@H]3O[C@H](CO)[C@@H](O)[C@H]3O)c2n1)c1ccccc1 (stereo partly drawn) [Example 17, 2-(2-phenyl-1-propoxy)adenosine]
[1]
  Selectivity (A1/A2): 5899

## COc1cccc(CCOc2nc(N)c3ncn([C@@H]4O[C@H](CO)[C@@H](O)[C@H]4O)c3n2)c1 [Example 9, 2-[2-(3-methoxyphenyl)ethoxy]adenosine]
[1]
  Selectivity (A1/A2): 6238
[2]
  EC50: 16.2 µM

## CC[C@@H](COc1nc(N)c2ncn([C@@H]3O[C@H](CO)[C@@H](O)[C@H]3O)c2n1)c1ccccc1 [Example 18]
[1]; concentration for half-maximal increase in coronary flow, infusion into aortic cannula, stepwise every 5 minutes
  EC50: 0.374 µM
[1]
  Selectivity (A1/A2): 50
[2]
  EC50: 18.8 µM

## CCNC(=O)[C@H]1O[C@@H](n2cnc3c(N)nc(OCCc4ccccc4)nc32)[C@H](O)[C@@H]1O [Example 22, 2-(2-phenyl)ethoxy-5'-N-ethylcarboxamidoadenosine]
[1]
  affinity and selectivity for A2 adenosine receptors (in words): high affinity and selectivity
  Selectivity (A1/A2): 11509

## COc1ccccc1CCOc1nc(N)c2ncn([C@@H]3O[C@H](CO)[C@@H](O)[C@H]3O)c2n1 [Example 8, 2-[2-(2-methoxyphenyl)ethoxy]adenosine]
[1]
  Selectivity (A1/A2): 1109
[2]
  EC50: 35.5 µM

## Nc1nc(OCCc2c[nH]c3ccccc23)nc2c1ncn2[C@@H]1O[C@H](CO)[C@@H](O)[C@H]1O [Example 16, 2-[2-(3-indolyl)ethoxy]adenosine]
[2]
  EC50: 14.1 µM

## COc1cc(CCOc2nc(N)c3ncn([C@@H]4O[C@H](CO)[C@@H](O)[C@H]4O)c3n2)cc(OC)c1OC [Example 12, 2-[2-(3,4,5-trimethoxyphenyl)ethoxy]adenosine]
[1]
  Selectivity (A1/A2): 2151
[2]
  EC50: 47.3 µM

## Nc1nc(OC2CCCCC2)nc2c1ncn2[C@@H]1O[C@H](CO)[C@@H](O)[C@H]1O [Example 4, 2-Cyclohexyloxyadenosine]
[1]
  Selectivity (A1/A2): 152

## Nc1nc(OCCc2ccccc2)nc2c1ncn2[C@@H]1O[C@H](CO)[C@@H](O)[C@H]1O [Example 7, 2-(2-phenylethoxy)adenosine]
[1]
  Selectivity (A1/A2): 7126
[2]
  EC50: 20 µM

## Nc1nc(OCCc2ccc(F)cc2)nc2c1ncn2[C@@H]1O[C@H](CO)[C@@H](O)[C@H]1O [Example 2, 2-[2-(4-fluorophenyl)ethoxy]adenosine]
[1]
  affinity and selectivity for A2 adenosine receptors (in words): high affinity and selectivity
  Selectivity (A1/A2): 29432
[2]
  EC50: 25.6 µM

## Nc1nc(OCc2ccccc2)nc2c1ncn2[C@@H]1O[C@H](CO)[C@@H](O)[C@H]1O [Example 6, 2-benzyloxyadenosine]
[1]
  Selectivity (A1/A2): 15
[2]
  EC50: 6.31 µM

## Nc1nc(OC2CCCC2)nc2c1ncn2[C@@H]1O[C@H](CO)[C@@H](O)[C@H]1O [Example 3, 2-Cyclopentyloxyadenosine]
[1]
  Selectivity (A1/A2): 866

## Nc1nc(OCCCCc2ccccc2)nc2c1ncn2[C@@H]1O[C@H](CO)[C@@H](O)[C@H]1O [Example 20, 2-(4-phenyl-1-butoxy)adenosine]
[1]
  Selectivity (A1/A2): 743

## Cc1ccccc1CCOc1nc(N)c2ncn([C@@H]3O[C@H](CO)[C@@H](O)[C@H]3O)c2n1 [Example 11, 2-[2-(2-methylphenyl)ethoxy]adenosine]
[1]
  Selectivity (A1/A2): 6610
[2]
  EC50: 25.1 µM

## Nc1nc(OCCc2ccc3ccccc3c2)nc2c1ncn2[C@@H]1O[C@H](CO)[C@@H](O)[C@H]1O [Example 24, 2-[2-(2-naphthyl)ethoxy]adenosine]
[2]
  EC50: 11.4 µM

## Nc1nc(OCCCCCc2ccccc2)nc2c1ncn2[C@@H]1O[C@H](CO)[C@@H](O)[C@H]1O [Example 21, 2-(5-phenyl-1-pentoxy)adenosine]
[2]
  EC50: 4.6 µM

## Nc1nc(OCCCc2ccccc2)nc2c1ncn2[C@@H]1O[C@H](CO)[C@@H](O)[C@H]1O [Example 1, 2-(3-phenyl-1-propoxy)adenosine]
[1]
  Selectivity (A1/A2): 326
[2]
  EC50: 20 µM

## Nc1nc(OCCc2cccs2)nc2c1ncn2[C@@H]1O[C@H](CO)[C@@H](O)[C@H]1O [Example 13, 2-[2-(2-thienyl)ethoxy]adenosine]
[1]
  Selectivity (A1/A2): 3212
[2]
  EC50: 11.9 µM

## COc1ccc(CCOc2nc(N)c3ncn([C@@H]4O[C@H](CO)[C@@H](O)[C@H]4O)c3n2)cc1 [Example 10, 2-[2-(4-methoxyphenyl)ethoxy]adenosine]
[1]
  affinity and selectivity for A2 adenosine receptors (in words): high affinity and selectivity
  Selectivity (A1/A2): 14089
[2]
  EC50: 19.7 µM

## Nc1nc(OCCc2cccc3ccccc23)nc2c1ncn2[C@@H]1O[C@H](CO)[C@@H](O)[C@H]1O [Example 15, 2-[2-(1-naphthyl)ethoxy]adenosine]
[2]
  EC50: 8.41 µM
